Assays:
CpLIP2 lipase [1] = biological target: T1, CpLIP2 lipase (Candida parapsilosis, UniProt Q8NIN8); assay: Quenching of CpLIP2 intrinsic tryptophan fluorescence by flavonols (Stern–Volmer, Lehrer, van't Hoff analysis); assay type: binding; conditions: for KSV (Stern–Volmer quenching constant): CpLIP2 2.5 µM, pH 7.0, flavonol 2.5–25 µM (GAL 2.5–17.5 µM); for Kq (bimolecular quenching constant): Kq = KSV/τ0, τ0 1.59 ns; for KSV (accessible), Stern–Volmer quenching constant of the exposed W residues / fa (fraction of accessible W residues to the quencher): Lehrer equation; for ΔG (free energy change): ΔG = ΔH − TΔS; for Kd: Kd (dissociation constant)
T1 sequence (Q8NIN8 entry or part of it): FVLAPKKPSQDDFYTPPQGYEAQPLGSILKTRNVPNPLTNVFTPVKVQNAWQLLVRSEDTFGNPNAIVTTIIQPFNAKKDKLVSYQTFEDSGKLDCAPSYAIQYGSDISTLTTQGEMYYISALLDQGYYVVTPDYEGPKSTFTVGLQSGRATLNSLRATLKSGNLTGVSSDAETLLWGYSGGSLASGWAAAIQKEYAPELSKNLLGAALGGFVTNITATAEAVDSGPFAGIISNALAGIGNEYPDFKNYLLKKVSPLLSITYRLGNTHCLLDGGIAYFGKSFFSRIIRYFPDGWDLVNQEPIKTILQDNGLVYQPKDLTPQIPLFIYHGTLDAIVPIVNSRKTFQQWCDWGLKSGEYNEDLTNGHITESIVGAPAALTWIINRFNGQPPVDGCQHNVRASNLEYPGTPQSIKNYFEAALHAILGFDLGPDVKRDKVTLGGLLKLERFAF
From the text: The fluorescence quenching spectra of CpLIP2 lipase submitted to increasing concentrations of GAL, KAE, QUE and MYR are shown in Figure 3. A remarkable quenching of the CpLIP2 fluorescence emission was observed. […] The fluorescence quenching is usually described by the linear Stern–Volmer Equations (2) and (3):(2) F0/F = 1 + Ksv [Q] = 1 + Kqτ0 [Q] (3) Kq=Ksv/τ0 where F0 and F are the intrinsic fluorescence intensities of CpLIP2 lipase (fluorophore) in absence or presence of quencher (flavonol), respectively. Kq is the bimolecular quenching constant, τ0 is the lifetime of the fluorophore in the absence of the quencher, [Q] is the concentration of the quencher, and KSV is the Stern–Volmer quenching constant.
The mechanism of quenching, occurring between CpLIP2 lipase and flavonols, was characterized by determining the values of Kq and the thermodynamic parameters by varying the temperature. […] In both cases, the bimolecular quenching constant Kq can be calculated by the ratio between KSV and τ0, itself determined at 1.59 ns for Human Pancreatic Lipase.
The inaccessible or buried residues are responsible for the remaining fluorescence, which is probably independent of the quencher concentration. […] An up-down curvature towards the x-axis has been shown for the four flavonols (Figure 4), indicating the presence of two populations of fluorophores, part of which would not be accessible. That means that some W residues are buried inside the lipase structure and that other residues are exposed to the solvent. Therefore, data were analyzed through the Lehrer equation, also known as the modified (or non-linear) Stern–Volmer Equation (4):(4) F0/ F0−F = 1/ fa Ksv 1/ [Q] +1/ fa
For static quenching, the equilibrium between free and bound CpLIP2 lipase, when the ligand molecules bind independently to equivalent sites of macromolecules, can be described by the following Equation (5):(5) log10F0−F/F=nlog10[Q]+log10Ka where Ka is the binding constant and n the number of binding sites per CpLIP2 molecule.
The results were determined for all flavonols tested at different temperatures from the plots of log10 F0 − F/F versus log10 [Q] and listed in Table 2. The plots show a linear relationship from which the slope equal to n and intercept on y-axis equal to log10 Ka. For the four flavonols, the Ka values increased when the temperatures increased. In addition, the n values were less than 1.0 in all cases and increased according to the temperature. […] Values of the dissociation constant of complexes were deduced from the Stern–Volmer Equation (6) and (7), for which Kd is expressed as the inverse of fa Ksv product. (6) F0/ F0−F= Kd 1/ [Q] +1 (7) Kd= 1/fa Ksv
Thermodynamic parameters were calculated to determine the type of binding forces that contribute in the CpLIP2 lipase–flavonol interactions. […] Both the enthalpy (ΔH) and entropy changes (ΔS) can be estimated from the following van′t Hoff Equation (8):(8) Ln Ka = − ΔH /RT + ΔS /R
The values of Gibbs binding free energy change (ΔG) are calculated from the following Equation (9):(9) ΔG= ΔH − TΔS
To fill up the volume of 300 µL by well, 190 µL of sodium phosphate buffer solution (75 mM, pH 7.0) was added to each well to obtain final concentration at 50 mM. Then, 100 µL of ethanol absolute–water ultrapure (2:8, v/v) solution was added to obtain a final amount of ethanol […] in the well of 300 µL. […] The final concentration of ethanol during the experiments never exceeded 0.07% (v/v). The last step was to add 10 µL of lipase after to have optimized the final concentration of CpLIP2 equal to 2.5 µM for all our assays, giving the optimal fluorescence intensity for all measurements. The measurement of intrinsic fluorescence started after mechanical shaking for 30 s inside the multi-plate reader. […]

CpLIP2 lipase [2] = biological target: T1, CpLIP2 lipase; assay: Fluorescence resonance energy transfer between CpLIP2 and flavonols (Förster theory); assay type: binding; on R0 (Förster distance): values in Å; on r (distance between acceptor and donor): values in Å
Procedure, shortened: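 Förster-theory FRET analysis with CpLIP2 as energy donor and flavonol as acceptor, using overlap of lipase fluorescence emission with flavonol UV absorption. Transfer efficiency E = 1−F/F0 from donor fluorescence with and without flavonol at equal concentrations; binding distance r derived from E and the Förster distance R0.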

[3] = cited from earlier work

## O=c1c(O)c(-c2ccc(O)cc2)oc2cc(O)cc(O)c12 [KAE, kaempferol]
CpLIP2 lipase [1]; 298 K
  Ka (association constant): 458 ± 2. L·mol^−1
  n (number of binding sites): 0.63 ± 0.07
  KSV (Stern–Volmer quenching constant): 2.1 ± 0.2 × 10^4 L·mol^−1
  Kq (bimolecular quenching constant): 1.3e+13 M⁻¹ s⁻¹
  KSV (accessible), Stern–Volmer quenching constant of the exposed W residues: 140000 L/mol
  fa (fraction of accessible W residues to the quencher): 0.45
  ΔG (free energy change): -39.3 kJ/mol
  Kd: 16 ± 3 µM
CpLIP2 lipase [1]; 308 K
  Ka (association constant): 476 ± 4 L/mol
  n (number of binding sites): 0.63 ± 0.07
  KSV (Stern–Volmer quenching constant): 1.9 ± 0.7 × 10^4 L·mol^−1
  Kq (bimolecular quenching constant): 1.2e+13 M⁻¹ s⁻¹
  KSV (accessible), Stern–Volmer quenching constant of the exposed W residues: 170000 L/mol
  fa (fraction of accessible W residues to the quencher): 0.43
  ΔG (free energy change): -40.6 kJ/mol
  Kd: 14 ± 5 µM
CpLIP2 lipase [1]; 318 K
  Ka (association constant): 862 ± 3 L/mol
  n (number of binding sites): 0.69 ± 0.09
  KSV (Stern–Volmer quenching constant): 1.8 ± 0.7 × 10^4 L·mol^−1
  Kq (bimolecular quenching constant): 1.1e+13 M⁻¹ s⁻¹
  KSV (accessible), Stern–Volmer quenching constant of the exposed W residues: 150000 L/mol
  fa (fraction of accessible W residues to the quencher): 0.42
  ΔG (free energy change): -41.9 kJ/mol
  Kd: 16 ± 7 µM
CpLIP2 lipase [1]; 328 K
  Ka (association constant): 1290 ± 2 L/mol
  n (number of binding sites): 0.75 ± 0.07
  KSV (Stern–Volmer quenching constant): 1.6 ± 0.6 × 10^4 L·mol^−1
  Kq (bimolecular quenching constant): 1e+13 M⁻¹ s⁻¹
  KSV (accessible), Stern–Volmer quenching constant of the exposed W residues: 150000 L/mol
  fa (fraction of accessible W residues to the quencher): 0.34
  ΔG (free energy change): -43.3 kJ/mol
  Kd: 19 ± 9 µM
CpLIP2 lipase [1]; all temperatures of Table 1
  order of magnitude of Kq: ~10^13 L mol^−1 s^−1
CpLIP2 lipase [1]; van't Hoff plot, 298–328 K
  ΔS (entropy changes): 0.13 kJ·mol^−1·K^−1
CpLIP2 lipase [2]
  percentage of transfer efficiency: 12%
CpLIP2 lipase [2]; 2.5 µM, 308 K, pH 7.0
  E (energy transfer efficiency): 0.12
  J (overlap integral): 10 × 10^14 nm^4·cm^−1·M^−1
  R0 (Förster distance): 36.0 Å
  r (distance between acceptor and donor): 50.1 Å
  r/R0: 1.4
[3]
  log10 P of partition between octanol and water phases: 3.5
